The values below come from patent US20100056508A1, “AMINE DERIVATIVES AND THEIR USE IN BETA-2-ADRENORECEPTOR MEDIATED DISEASES” (ASTRAZENECA AB, priority 2006, published 2010).

For test [1], the target named is T1, recombinant human α1D receptor (Homo sapiens, UniProt P25100).
T1 construct: expressed in transfected cells; host or cells: human embryonic kidney 293 cells (HEK93 [sic]), membranes
T1 sequence (P25100 1-572): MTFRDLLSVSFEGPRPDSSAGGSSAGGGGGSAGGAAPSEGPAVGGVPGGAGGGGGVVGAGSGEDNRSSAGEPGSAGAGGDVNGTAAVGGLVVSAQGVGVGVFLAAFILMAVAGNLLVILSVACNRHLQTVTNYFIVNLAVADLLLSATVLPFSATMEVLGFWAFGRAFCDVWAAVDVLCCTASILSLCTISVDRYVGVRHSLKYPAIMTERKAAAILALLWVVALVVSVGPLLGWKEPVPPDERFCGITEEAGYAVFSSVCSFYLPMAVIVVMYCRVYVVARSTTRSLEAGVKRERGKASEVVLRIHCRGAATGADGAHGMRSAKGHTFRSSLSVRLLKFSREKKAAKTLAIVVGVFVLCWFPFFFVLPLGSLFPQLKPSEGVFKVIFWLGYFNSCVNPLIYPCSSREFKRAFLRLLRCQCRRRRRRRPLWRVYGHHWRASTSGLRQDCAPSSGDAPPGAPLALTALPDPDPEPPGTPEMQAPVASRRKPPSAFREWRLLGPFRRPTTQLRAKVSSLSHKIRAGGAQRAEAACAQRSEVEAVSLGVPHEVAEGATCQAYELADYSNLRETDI
Description: Adrenergic α1D selectivity assay, [3H]-prazosin binding to membranes. The note with it: inhibition of [3H]-prazosin binding, HEK cell membranes, read-out: α1 bind pIC50 (converted). As for the experimental part:
Membranes were prepared from human embryonic kidney 293 ([…]) cells expressing recombinant human α1D receptor. These were diluted in Assay Buffer (50 mM HEPES, 1 mM EDTA, pH 7.4) to provide a final concentration of membranes that gave a clear window between maximum and minimum specific binding.
(§1) Assays were performed in U-bottomed 96-well polypropylene plates. 10 μL [^3H]-prazosin (0.3 nM final concentration) and 10 mL of test compound (10× final concentration) were added to each test well. For each assay plate 8 replicates were obtained for [^3H]-prazosin binding in the presence of 10 μL vehicle (10% (v/v) DMSO in Assay Buffer; defining maximum binding) or 10 μL BMY7378 (10 μM final concentration; defining non-specific binding (NSB)). Membranes were then added to achieve a final volume of 100 μL. The plates were incubated for 2 hours at room temperature and then filtered onto PEI coated GF/B filter plates, pre-soaked for 1 hour in Assay Buffer, using a 96-well plate Tomtec cell harvester. Five washes with 250 μL wash buffer (50 mM HEPES, 1 mM EDTA, pH 7.4) were performed at 4° C. to remove unbound radioactivity. The plates were dried then sealed from underneath using Packard plate sealers and MicroScint-O (50 μL) was added to each well. The plates were sealed (TopSeal A) and filter-bound radioactivity was measured with a scintillation counter (TopCount, Packard BioScience) using a 3-minute counting protocol.
Total specific binding (B0) was determined by subtracting the mean NSB from the mean maximum binding. NSB values were also subtracted from values from all other wells. […] Data was fitted to a four parameter logistic equation to determine the compound potency, which was expressed as pIC50 (negative log molar concentration inducing 50% inhibition of [^3H]-prazosin binding).

Test [2] has as its target T2, recombinant human adrenergic beta 1 receptors (Homo sapiens, UniProt P08588).
T2 construct: purchased Euroscreen
Put plainly: Adrenergic β1 selectivity assay, [125I]-Iodocyanopindolol binding to membranes. The note with it: inhibition of [125I]-Iodocyanopindolol binding, read-out: β1 bind pIC50 (converted). As for the experimental part:
Membranes containing recombinant human adrenergic beta 1 receptors were obtained from Euroscreen. These were diluted in Assay Buffer (50 mM HEPES, 1 mM EDTA, 120 mM NaCl, 0.1% gelatin, pH 7.4) to provide a final concentration of membranes that gave a clear window between maximum and minimum specific binding.
as §1, with “[^125I]-Iodocyanopindolol (0.036” for “[^3H]-prazosin (0.3”, “μL” for “mL”, “[^125I]-Iodocyanopindolol” for “[^3H]-prazosin”, “Propranolol” for “BMY7378”, “EDTA, 120 mM NaCl,” for “EDTA,”
Total specific binding (B0) was determined by subtracting the mean NSB from the mean maximum binding. NSB values were also subtracted from values from all other wells. […] Data was fitted to a four parameter logistic equation to determine the compound potency, which was expressed as pIC50 (negative log molar concentration inducing 50% inhibition of [^125I]-Iodocyanopindolol binding).

For test [3], the target named is T3, Adrenergic β2 (Homo sapiens, UniProt P07550).
T3 construct: Adherent H292 cells were removed from tissue culture flasks; endogenous in cells; host or cells: H292 cells
T3 sequence (P07550 whole entry): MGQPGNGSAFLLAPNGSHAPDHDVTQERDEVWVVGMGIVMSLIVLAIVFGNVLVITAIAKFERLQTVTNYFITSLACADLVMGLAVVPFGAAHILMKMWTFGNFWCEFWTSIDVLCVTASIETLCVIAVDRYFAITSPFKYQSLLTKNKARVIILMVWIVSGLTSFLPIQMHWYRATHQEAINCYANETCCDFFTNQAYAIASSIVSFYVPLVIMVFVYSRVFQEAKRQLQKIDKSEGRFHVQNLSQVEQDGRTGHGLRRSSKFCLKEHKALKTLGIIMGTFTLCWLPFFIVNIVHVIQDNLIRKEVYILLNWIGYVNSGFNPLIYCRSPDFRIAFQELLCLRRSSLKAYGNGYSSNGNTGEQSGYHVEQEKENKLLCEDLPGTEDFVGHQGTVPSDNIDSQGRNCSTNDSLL
Put plainly: Adrenergic β2 mediated cAMP production in H292 cells (AlphaScreen cAMP detection). Also on record: key to β2 Int Act: fraction of formoterol maximum activity (formoterol = 1). Format: cell-based. The protocol:
Adrenergic β2 Mediated cAMP Production
H292 cells were grown in 225 cm2 flasks incubator at 37° C., 5% CO2 in RPMI medium containing, 10% (v/v) FBS (foetal bovine serum) and 2 mM L-glutamine.
Adherent H292 cells were removed from tissue culture flasks by treatment with Accutase™ cell detachment solution for 15 minutes. Flasks were incubated for 15 minutes in a humidified incubator at 37° C., 5% CO2. Detached cells were re-suspended in RPMI media (containing 10% (v/v) FBS and 2 mM L-glutamine) at 1×10^6 cells per mL. 10000 cells in 100 μL were added to each well of a tissue-culture-treated 96-well plate and the cells incubated overnight in a humidified incubator at 37° C., 5% CO2. The culture media was removed and cells were washed twice with 100 μL assay buffer and replaced with 50 μL assay buffer (HBSS solution containing 10 mM HEPES pH7.4 and 5 mM glucose). Cells were rested at room temperature for 20 minutes after which time 25 μL of rolipram (1.2 mM made up in assay buffer containing 2.4% (v/v) dimethylsulphoxide) was added. Cells were incubated with rolipram for 10 minutes after which time test compounds were added and the cells were incubated for 60 minutes at room temperature. The final rolipram concentration in the assay was 300 μM and final vehicle concentration was 1.6% (v/v) dimethylsulphoxide. The reaction was stopped by removing supernatants, washing once with 100 μL assay buffer and replacing with 50 μL lysis buffer. The cell monolayer was frozen at −80° C. for 30 minutes (or overnight).
AlphaScreen™ cAMP Detection
The concentration of cAMP (cyclic adenosine monophosphate) in the cell lysate was determined using AlphaScreen™ methodology. The frozen cell plate was thawed for 20 minutes on a plate shaker then 10 μL of the cell lysate was transferred to a 96-well white plate. 40 μL of mixed AlphaScreen™ detection beads pre-incubated with biotinylated cAMP, was added to each well and the plate incubated at room temperature for 10 hours in the dark. The AlphaScreen™ signal was measured using an EnVision spectrophotometer (Perkin-Elmer Inc.) with the recommended manufacturer's settings. cAMP concentrations were determined by reference to a calibration curve determined in the same experiment using standard cAMP concentrations. Concentration response curves for agonists were constructed and data was fitted to a four parameter logistic equation to determine both the pEC50 and Intrinsic Activity. Intrinsic Activity was expressed as a fraction relative to the maximum activity determined for formoterol in each experiment.
In general terms: cAMP levels reflect the balance of adenylyl cyclase and phosphodiesterase activity.

T2 sequence (P08588 whole entry): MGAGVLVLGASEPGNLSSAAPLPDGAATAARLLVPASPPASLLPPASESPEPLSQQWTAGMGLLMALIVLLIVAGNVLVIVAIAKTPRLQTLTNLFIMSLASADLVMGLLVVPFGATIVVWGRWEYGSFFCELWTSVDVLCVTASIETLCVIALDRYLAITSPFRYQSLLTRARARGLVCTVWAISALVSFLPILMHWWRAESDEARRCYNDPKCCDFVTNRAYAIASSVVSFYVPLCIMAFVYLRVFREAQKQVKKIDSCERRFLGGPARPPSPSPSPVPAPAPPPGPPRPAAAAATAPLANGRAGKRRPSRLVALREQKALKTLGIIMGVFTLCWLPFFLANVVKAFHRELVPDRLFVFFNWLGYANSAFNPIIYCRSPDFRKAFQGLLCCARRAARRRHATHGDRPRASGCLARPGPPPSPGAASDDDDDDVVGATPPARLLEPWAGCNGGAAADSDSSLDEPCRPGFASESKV

As for `Cc1ccc(F)c(CCNCCC(=O)N(CCNCCc2ccc(O)c3c2OCC(=O)N3)C2CCCCC2)c1` [Example 33, N-Cyclohexyl-3-(2-fluoro-5-methylphenethylamino)-N-(2-(2-(5-hydroxy-3-oxo-3,4-dihydro-2H-benzo[b][1,4]oxazin-8-yl)ethylamino)ethyl)propanamide bis(trifluoroacetate)], the IC50 in test [1] is 79.4 nM; in test [2], 2510 nM. In test [3] (Intrinsic Activity as a fraction relative to the maximum activity determined for formoterol), the “β2 Int Act” value came out at 0.9. Besides, the EC50 in test [3] (cAMP production, 60 minutes at room temperature, 300 μM rolipram, read-out: β2 pEC50 (converted)) was 1.58 nM.
